Assay results: patent publication US7494980B2, “Antimicrobial peptide and methods of use thereof” (The United States of America as represented by the …, priority 2003, dated 2009)
Ends that are not written are not given here.

System: L. salivarius ATCC 29602
Assay: Bactericidal assay (log reduction in viable counts)
Format: cell-based, Lactobacillus salivarius
Description: Strains used in Examples 3-6 included ATCC and laboratory strains of different oral bacteria. These included: Actinomyces naeslundii strain T14V-J1, Actinomyces israelii ATCC 10049, Streptococcus mutans strains LT 11 and ATCC 25175, Streptococcus sobrinus ATCC 33478, Streptococcus gordonii strains DL1 and ATCC 51656, Streptococcus sanguis strains SK36 and ATCC 10556, Streptococcus salivarius ATCC 9222, Streptococcus oralis strains 34 and ATCC 35037, Lactobacillus salivarius ATCC 29602, Lactobacillus acidophilus ATCC 4357, and Actinobacillus actinomycetemcomitans ATCC 43718. S. mutans strain LT 11 was kindly provided by Lin Tao, University of Illinois at Chicago, Ill. S. gordonii DLI, S. sanguis SK36, and S. oralis 34 were provided by John Cisar, National Institute of Dental and Craniofacial Research, NIH, Bethesda, Md.
The bactericidal assay was performed according to procedures described by Miyasaki et al. (1997, 1998) with a slight modification. […] Susceptibility was determined by examining the log reduction in viability counts of organisms that had been exposed to different concentrations of KSL. […] Bactericidal activity was also expressed as the 99% effective dose (ED99), which is the concentration of the antimicrobial decapeptide at which there is a 2-log or more reduction in c.f.u. […]
In addition to the determinations of MICs and MBCs of KSL, log reductions in viable counts of selected oral bacteria caused by KSL were also determined. […] With the exception of Actinobacillus actinomycetemcomitans, for which the assays were performed in 0.01% BHI, bactericidal action of KSL was determined in isotonic HBSS after incubation with the targeted bacteria for 1 h at 37° C. KSL at 6.25 μg ml^−1, which was determined to be the 99% effective dose (ED99), caused more than 2 log reductions in viable counts of the organisms tested, which included L. salivarius ATCC 29602 (FIG. 3a), S. mutans ATCC 25175^T (FIG. 3b), S. gordonii ATCC 51656 (FIG. 3c), and Actinobacillus actinomycetemcomitans ATCC 43718 (FIG. 3d).

## KKVVFKVKFK-NH2 [KSL, lys-lys-val-val-phe-lys-val-lys-phe-lys]
6.25 μg ml^−1, HBSS, FIG. 3a
  log reduction in viable counts: more than 2 log
Concentrations of <10 μg ml^−1
  reduction in viability: > 3 logs
Isotonic HBSS, 1 h at 37° C.
  ED99 (99% effective dose): 6.25 µg/mL
